Paper PMC4567993, “A Novel Trypsin Inhibitor-Like Cysteine-Rich Peptide from the Frog Lepidobatrachus laevis Containing Proteinase-Inhibiting Activity” (Natural Products and Bioprospecting, 2015)
pKi: −log10 of the molar value. No end group written: not given here.

Legend:
trypsin = assay: Trypsin inhibition, chromogenic substrate (serine protease inhibitory testing); assay type: biochemical; details: for Reciprocal reaction velocity of trypsin, 1/V av / Reaction velocity of trypsin, V av: pH 7.8, 37 °C, means of three duplicate experiments
Protocol: (§1) Effects of the tested samples on the hydrolysis of synthetic chromogenic substrates by different serine proteases were assayed in 0.05 M Tris–HCl, pH 7.8 (for trypsin, Sigma T4665; thrombin, Sigma T4393; chymotrypsin, Sigma C4129; elastase, Sigma E1250; plasmin, Sigma P1867) or pH 8.45 (for substilisin, Sigma P5380) buffer at 37 °C. The protease (trypsin, 10 nM; thrombin, 10 nM; chymotrypsin, 21 nM; elastase, 23 nM and substilisin, 30 nM) and different amounts of LL-TIL (final concentrations ranging from 0.0 to 20 μM) were pre-incubated for 10 min at 37 °C. […] The formation of p-nitroaniline was monitored continuously at 405 for 2 min. For chymotrypsin, the reaction was monitored at 253 nm. The inhibition constant Ki was determined according to the reported method.

thrombin = assay: Thrombin inhibition, chromogenic substrate; assay type: biochemical; details: thrombin 10 nM; 0.05 M Tris-HCl pH 7.8, 37 °C; LL-TIL 0.0 to 20 μM; pre-incubated 10 min; data not shown
Source text: (§2) Presently, the biological role of proteinase inhibitory peptides in amphibian skins is explained mainly by two hypotheses. One is that several enzymes are involved in peptide precursor processing or peptide degradation in the skin and proteinase inhibitors negatively modulate the activity of these proteases to avoid premature degradation or release of skin peptides. The other hypothesis is that the peptides are surface anti-infective agent similar to AMPs because they inhibit extracellular proteases produced by invading bacteria. […] Further work is needed to address this issue.
as §1

chymotrypsin [1] = assay: Chymotrypsin inhibition, chromogenic substrate; assay type: biochemical; details: chymotrypsin 21 nM; 0.05 M Tris-HCl pH 7.8, 37 °C; monitored at 253 nm; LL-TIL 0.0 to 20 μM; pre-incubated 10 min; data not shown
Source text: as §2, §1

elastase [2] = assay: Elastase inhibition, chromogenic substrate; assay type: biochemical; details: elastase 23 nM; 0.05 M Tris-HCl pH 7.8, 37 °C; LL-TIL 0.0 to 20 μM; pre-incubated 10 min; data not shown
Source text: as §2, §1

plasmin = assay: Plasmin inhibition, chromogenic substrate; assay type: biochemical; details: 0.05 M Tris-HCl pH 7.8, 37 °C; LL-TIL 0.0 to 20 μM; pre-incubated 10 min; data not shown
Source text: as §2, §1

substilisin = assay: Substilisin inhibition, chromogenic substrate; assay type: biochemical; details: substilisin 30 nM; pH 8.45, 37 °C; LL-TIL 0.0 to 20 μM; pre-incubated 10 min; data not shown
Source text: as §2, §1

[3] = system: Bacillus subtilis (ATCC 6633); assay: Antimicrobial assay (MIC); assay type: cell-based; details: recombinant LL-TIL, data not shown
Protocol: (§3) For antimicrobial assays, several microorganisms including Gram positive bacterium S. aureus (ATCC 25923), […] and fungus C. albicans (ATCC 20032) were obtained from Kunming Medical College. They were first grown in LB (Luria–Bertani) broth or yeast extract–peptone–dextrose broth as our previous methods. MIC (minimal inhibitory concentration) of tested sample against these microorganisms was determined as previous reports. The MIC is defined as the lowest concentration of tested sample to inhibit microorganism growth.

[4] = system: Candida albicans (ATCC 20032); assay: Antimicrobial assay (MIC); assay type: cell-based; details: recombinant LL-TIL, ATCC 20032, fungus, data not shown
Protocol: as §3

[5] = system: Escherichia coli (ATCC 25922); assay: Antimicrobial assay (MIC); assay type: cell-based; details: recombinant LL-TIL, ATCC 25922, Gram-negative, data not shown
Protocol: as §3

[6] = system: Staphylococcus aureus (ATCC 25923); assay: Antimicrobial assay (MIC); assay type: cell-based; details: recombinant LL-TIL, ATCC 25923, Gram positive, data not shown
Protocol: as §3

microorganisms = assay: Antimicrobial assay, overall statement; assay type: cell-based; details: recombinant LL-TIL; S. aureus, E. coli, B. subtilis, C. albicans tested
Protocol: as §3

elastase [7] = system: elastase; set-up: method as in 3 sources, ref [14] = [14]; PMID 23533574; doi:10.1371/journal.pone.0057529; 14. Chen ZY Wang B Hu J Yang WS Cao ZJ Zhuo RX Li W Wu Y PLoS ONE 2013 8 e57529 10.1371/journal.pone.0057529 23533574 PMC3606364 ||| ref [15] = [15]; PMID 16191451; doi:10.1016/j.peptides.2005.07.013; 15. Fogaca AC Almeida IC Eberlin MN Tanaka AS Bulet P Daffre S Peptides 2006 27 667 674 10.1016/j.peptides.2005.07.013 16191451 ||| ref [20] = [20]; PMID 23200835; doi:10.1016/j.bbrc.2012.11.056; 20. Kim BY Lee KS Wan H Zou FM Choi YS Yoon HJ Kwon HW Je YH Jin BR Biochem. Biophys. Res. Commun. 2013 430 144 149 10.1016/j.bbrc.2012.11.056 23200835; details: ref [15]; cited from earlier work
chymotrypsin [8] = system: chymotrypsin; set-up: method as in 2 sources, one per row (each row's own in cited_ref): ref [15] = [15]; PMID 16191451; doi:10.1016/j.peptides.2005.07.013; 15. Fogaca AC Almeida IC Eberlin MN Tanaka AS Bulet P Daffre S Peptides 2006 27 667 674 10.1016/j.peptides.2005.07.013 16191451 ||| ref [20] = [20]; PMID 23200835; doi:10.1016/j.bbrc.2012.11.056; 20. Kim BY Lee KS Wan H Zou FM Choi YS Yoon HJ Kwon HW Je YH Jin BR Biochem. Biophys. Res. Commun. 2013 430 144 149 10.1016/j.bbrc.2012.11.056 23200835; details: ref [15]; cited from earlier work
[9] = set-up: method as in PMID 16191451; details: ref [15]; cited from earlier work
trypsin (Sigma T4665) = assay: enzyme inhibition kinetics (chromogenic substrate, Dixon plot); trypsin 10 nM pre-incubated with LL-TIL for 10 min at 37 °C in 0.05 M Tris-HCl, pH 7.8; reaction started with substrate B-3133; p-nitroaniline followed at 405 for 2 min; Ki by Dixon plot from velocities at [S] = 0.2 and 0.4 mM

For “IRCPKDKIYKFCGSPCPPSCKDLTPNCIAVCKKGCFCRDGTVDNNHGKCVKKENC (disulfide (positions not given here)) [LL-TIL]”, the “inhibition of trypsin (in words)” value (trypsin; 0.05 M Tris-HCl pH 7.8, 37 °C, trypsin 10 nM, LL-TIL 0.0 to 20 μM) was “inhibited the activity of trypsin”, the “Reciprocal reaction velocity of trypsin, 1/V av” value (“Reciprocal reaction velocity” for short) (trypsin; [I] = 12.987 μM, [S] = 0.2 mM, 1/V av at [I] 0: 3.7864) was 5.2826 and the “Reaction velocity of trypsin, V av” value (trypsin; [I] = 12.987 μM, [S] = 0.2 mM, V av at [I] 0: 0.2641) was 0.1893. For the same substance, the “Reciprocal reaction velocity” value (trypsin; [I] = 12.987 μM, [S] = 0.4 mM, 1/V av at [I] 0: 2.7352) was 3.8700, the “Reaction velocity of trypsin, V av” value (trypsin; [I] = 12.987 μM, [S] = 0.4 mM, V av at [I] 0: 0.3656) was 0.2584 and the “Reciprocal reaction velocity” value (trypsin; [I] = 25.974 μM, [S] = 0.2 mM, 1/V av at [I] 0: 3.7864) was 7.3116. For the same substance, the “Reaction velocity of trypsin, V av” value (trypsin; [I] = 25.974 μM, [S] = 0.2 mM, V av at [I] 0: 0.2641) was 0.1368, the “Reciprocal reaction velocity” value (trypsin; [I] = 25.974 μM, [S] = 0.4 mM, 1/V av at [I] 0: 2.7352) was 4.8481 and the “Reaction velocity of trypsin, V av” value (trypsin; [I] = 25.974 μM, [S] = 0.4 mM, V av at [I] 0: 0.3656) was 0.2063. The pKi (trypsin; recombinant LL-TIL, trypsin 10 nM, 0.05 M Tris-HCl pH 7.8, 37 °C, pre-incubated 10 min, chromogenic substrate B-3133, p-nitroaniline at 405 for 2 min, Dixon plot, [S] 0.2 and 0.4 mM) was 4.78, the “inhibition of hydrolysis of chromogenic substrate by thrombin” value (thrombin) was “did not inhibit” and the “inhibition of hydrolysis of chromogenic substrate by chymotrypsin” value (chymotrypsin [1]) was “did not inhibit”. The “inhibition of hydrolysis of chromogenic substrate by elastase” value (elastase [2]) was “did not inhibit”, the “inhibition of hydrolysis of chromogenic substrate by plasmin” value (plasmin) was “did not inhibit” and the “inhibition of hydrolysis of chromogenic substrate by substilisin” value (substilisin) was “did not inhibit”. The “antimicrobial ability against B. subtilis” value [3] was “no antimicrobial abilities”, the “antimicrobial ability against C. albicans” value [4] was “no antimicrobial abilities” and the “antimicrobial ability against E. coli” value [5] was “no antimicrobial abilities”. For the same substance, the “antimicrobial ability against S. aureus” value [6] was “no antimicrobial abilities” and the “antimicrobial activity (overall)” value (microorganisms) was “no antimicrobial activity”.

In the case of “Ixodidin: from hemocytes of the cattle tick”, the inhibition of elastase (elastase [7]) is listed as “able to inhibit”, the inhibition of chymotrypsin (chymotrypsin [8]) is listed as “able to inhibit” and the antimicrobial activity [9] is listed as “weak antimicrobial activities”.

“LL-TIL (trypsin inhibitor-like cysteine-rich peptide from Lepidobatrachus laevis), recombinant mature peptide” showed a pKi (trypsin (Sigma T4665)) of 4.78.
